Laboratory results taken from US20060252740A1 (priority 2005, published 2006).

Columns and labels:
[1] = Dose limiting toxicity and drug-related toxicities in dose-escalating clinical trial; assay type: in vivo, human; details: twice weekly for two out of three weeks (Days 1, 4, 8, 11; 21 day cycle)
Experimental: Eighteen patients were treated in accordance with this protocol.

[2] = test system: patients with advanced malignancies incl. metastatic melanoma; details: cited from earlier work
[3] = highest dose level (450 mg/m^2)

## C=CCNC1=C2C[C@@H](C)C[C@H](OC)[C@H](O)[C@@H](C)/C=C(\C)[C@H](OC(N)=O)[C@@H](OC)/C=C\C=C(/C)C(=O)NC(=CC1=O)C2=O [17-AAG, 17-Allylamino-17-demethoxygeldanamycin]
[1]
  17-AAG dose employed without reaching dose limiting toxicity (DLT) in any treated patient: 275 mg/m^2
[2]; 450 mg/m^2
  mean peak plasma level: 8,998 μg/L
  mean volume of distribution: 142.6 L
[2]; 320-450 mg/m^2/week
  induction of the co-chaperone protein Hsp70: 8 of 9
[2]; at 24 hours
  CDK4 depletion in tumor biopsies: 8 out of 9
  Raf-1 depletion in tumor biopsies: 4 out of 6
[2]; [3]
  period plasma 17-AAG concentrations remained above 120 nM: > 24 h
  plasma 17-AAG concentrations: exceeded 10 μM
[2]; in vivo
  complete or partial responses: No complete or partial responses
[2]; once weekly, grade ¾ elevation of AST
  dose at which dose limiting toxicity was observed: 450 mg/m^2/week
[2]; patients treated at 320-450 mg/m^2
  stable disease: two showed radiologically documented long term stable disease
